Source: patent publication US10161008B2, “miR-193a-3p and associated genes predict tumorigenesis and chemotherapy outcomes” (Genedia Biotech Co., Ltd., priority 2011, dated 2018)
In brackets after ≈: the same amount, converted by molar mass. Read-outs that look alike come from different tables or passages of the source.

Assays:
miR-193a-3p = experiment: qRT-PCR of miR-193a-3p after demethylation in QGY-7703; type: cell-based, human; settings: QGY-7703, treated 2 and 4 days
From the text: A. The physical map of the miR-193 gene region for DNA methylation analysis. (FIG. 3A discloses SEQ ID NO: 23) B. The methylation state of each of 27 CpGs in the mock treated (Mock) and treated for 2 days (2D) and 4 days (4D). C. The methylation frequency in B (unit: mC/Total) is plotted. D. The methylation state of the miR-193a gene determined by methylation-specific PCR is shown. Control: the unmethylated (U) and methylated (M) control DNA, respectively. E. Relative miR-193a-3p level determined by qRT-PCR was plotted. (*P<0.05, **P<0.01).
RNA: Total RNA was isolated using TRIzol reagent (Invitrogen, USA). Complementary DNA synthesis was performed using a primeScript RT reagent kit (Tiangen Biotech Co., Ltd., Beijing, China) for the SYBR® Green-based real-time PCR analysis in Rotor-Gene™ 6000 system, Qiagen, Germany) of SRSF2, E2F1, ABCC8, and CASP2S/L. The expression of miR-193a-3p (Ribobio, Guangzhou, China) was assessed using the 2-Ct method with RNA content normalized to the U6 RNA (Ribobio, Guangzhou, China) and to β-actin for other genes and plotted. The high-throughput, quantitative nuclease protection based analysis (Bourzac K. M. et al. (2011) J Biotechnol, 154, 68-75; Pechhold S. et al. (2009) Nat Biotechnol, 27, 1038-1042) on a customized array that are designed for the simultaneous determination of the expression of 42 human miRs and 5 housekeeping genes was determined. […]

HepG2 cells = experiment: MTT-based IC50 determination in HepG2; type: cell-based, human
Method: The log phase of cell culture was obtained in Dulbecco modified Eagle medium (Invitrogen) containing 10% calf serum and 1% streptomycin-penicillin at 37° C. in 5% CO2. The thiazolyl blue tetrazolium blue (MTT)-based cell proliferation assay was carried out as follows: 5×10^3 to 1×10^4 cells in triplicate were cultured into each well of a 96-well plate (in triplicate) for 72 h, followed by a 3-h 37° C. incubation after addition of 10 μL (5 mg/mL) MTT salt (Sigma, USA).
The relative OD 570-nm readings (mean and SD) in each drug-treated set and the no-drug mock sample were calculated (%) and plotted against the logarithm of the drug concentration. […] Sources of the drugs are as follows: 5-FU, Shanghai Xudong Haipu Pharmaceutical, China; gemcitabine, Jiangsu Hansen Pharmaceutical, China; epirubicin, Shenzhen Main Luck Pharmaceutical, China; irinotecan, Aventis Pharmaceutical, Germany; paclitaxel, Bristol-Myers Squibb, USA; mitomycin, Hisun Pharmaceutical, China); docetaxel, Jiangsu Hengrui Medicine, China; vinorelbine, Yangzhou Aosaikang Pharmaceutical, China; and cisplatin, Qilu Pharmaceutical Factory, China.

[1] = test system: CASP2L and CASP2S mRNAs of caspase 2; experiment: qRT-PCR of caspase 2 splice forms in QGY-7703; type: cell-based, human; settings: QGY-7703, low dose 4 μg/mL, one day
Method: (§1) RNA: Total RNA was isolated using TRIzol reagent (Invitrogen, USA). Complementary DNA synthesis was performed using a primeScript RT reagent kit (Tiangen Biotech Co., Ltd., Beijing, China) for the SYBR® Green-based real-time PCR analysis in Rotor-Gene™ 6000 system, Qiagen, Germany) of SRSF2, E2F1, ABCC8, and CASP2S/L. The expression of miR-193a-3p (Ribobio, Guangzhou, China) was assessed using the 2-Ct method with RNA content normalized to the U6 RNA (Ribobio, Guangzhou, China) and to β-actin for other genes and plotted. The high-throughput, quantitative nuclease protection based analysis (Bourzac K. M. et al. (2011) J Biotechnol, 154, 68-75; Pechhold S. et al. (2009) Nat Biotechnol, 27, 1038-1042) on a customized array that are designed for the simultaneous determination of the expression of 42 human miRs and 5 housekeeping genes was determined. Only miR-193a-3p expression was shown.
(§2) In light of all the known so far, this ratio is very likely to be most robust indicator to 5-FU resistance of HCC. To determine the 5-FU impact in this system, this example treated both cell lines by 4 μg/mL (a low dose) and 300 μg/mL (a high dose) for one day, respectively. […] As expected, both RNA and protein of SRSF2 were elevated by a larger margin than E2F1 in both QGY-7703 and SMMC-7721 (FIGS. 8B, C and F). […]

QGY-7703 cells = experiment: MTT-based IC50 determination in QGY-7703; type: cell-based, human; settings: for IC50: Homo sapiens
Method: (§3) The log phase of cell culture was obtained in Dulbecco modified Eagle medium (Invitrogen) containing 10% calf serum and 1% streptomycin-penicillin at 37° C. in 5% CO2. The thiazolyl blue tetrazolium […] cell proliferation assay was carried out as follows: 5×10^3 to 1×10^4 cells in triplicate were cultured into each well of a 96-well plate (in triplicate) for 72 h, followed by a 3-h 37° C. incubation after addition of 10 μL (5 mg/mL) MTT salt (Sigma, USA). The OD 570-nm reading was obtained; the mean and SD of the triplicate experiments were calculated and plotted (Fei Q. et al. (2008) Acta Biochim Biophys Sin (Shanghai), 40, 466-477).
(§4) The relative OD 570-nm readings (mean and SD) in each drug-treated set and the no-drug mock sample were calculated (%) and plotted against the logarithm of the drug concentration. The linear regression parameters were determined for each curve and the IC50 extrapolated (Andrisano V. et al. (2001) J Chromatogr B Biomed Sci Appl, 753, 375-383). Sources of the drugs are as follows: 5-FU, Shanghai Xudong Haipu Pharmaceutical, China; gemcitabine, Jiangsu Hansen Pharmaceutical, China; epirubicin, Shenzhen Main Luck Pharmaceutical, China; irinotecan, Aventis Pharmaceutical, Germany; paclitaxel, Bristol-Myers Squibb, USA; mitomycin, Hisun Pharmaceutical, China); docetaxel, Jiangsu Hengrui Medicine, China; vinorelbine, Yangzhou Aosaikang Pharmaceutical, China; and cisplatin, Qilu Pharmaceutical Factory, China.

SMMC-7721 cells = experiment: MTT-based IC50 determination in SMMC-7721; type: cell-based; settings: Homo sapiens
Method: as §3, §4

[2] = test system: SMMC-7721 tumor xenografts; experiment: SMMC-7721 tumor growth in nude mice; type: in vivo
Method: After transfection with 50 nM miR-193a-3p or mock antagomirs (Ribobio, China) for 24 h, SMMC-7721 cells were collected and subcutaneously injected into the left and right flanks (1.25×10^6 cells/point) of each nude mouse (10 total), respectively. On day 12 after cell injection, 5 mice received 5-FU (75 mg/kg mouse body weight) intraperitoneal and then twice again in 1 week. The remaining 5 mice received phosphate-buffered saline (PBS) as a mock treatment control. And at the same time, the right side of all mice tumor were intratumorally injected with miR-193a-3p antagomir and left side with mock antagomir (according to manufacture instruction, Ribobio). To monitor the tumor growth, the volume was measured with a Vernier caliper on days 12, 18, 25, and 32 and calculated as Volume=W^2×L×0.5 (W and L represent the largest and next largest tumor diameters [cm]) and then plotted. Mice were humanely sacrificed on day 32, and tumors were weighed and photographed. Immunostaining was performed for ki67, SFS2, and E2F1 expression in both tumors of mouse number 4 (mock treated) mouse number 6 (5-FU treated).

[3] = test system: CASP2L and CASP2S mRNAs of caspase 2; experiment: qRT-PCR of caspase 2 splice forms in SMMC-7721; type: cell-based, human; settings: SMMC-7721, low dose 4 μg/mL, one day
Method: as §1, §2

[4] = test system: Bcap-37 versus ZR-75-30 breast cancer cells; experiment: IC50 screen of breast cancer cell lines; type: cell-based, human; settings: Bcap-37 vs ZR-75-30
Method: The log phase of cell culture was obtained in Dulbecco modified Eagle medium (Invitrogen) containing 10% calf serum and 1% streptomycin-penicillin at 37° C. in 5% CO2. The thiazolyl blue tetrazolium blue (MTT)-based cell proliferation assay was carried out as follows: 5×10^3 to 1×10^4 cells in triplicate were cultured into each well of a 96-well plate (in triplicate) for 72 h, followed by a 3-h 37° C. incubation after addition of 10 μL (5 mg/mL) MTT salt (Sigma, USA). The OD 570-nm reading was obtained; the mean and SD of the triplicate experiments were calculated and plotted (Fei Q. et al. (2008) Acta Biochim Biophys Sin (Shanghai), 40, 466-477).
The relative OD 570-nm readings (mean and SD) in each drug-treated set and the no-drug mock sample were calculated (%) and plotted against the logarithm of the drug concentration. The linear regression parameters were determined for each curve and the IC50 extrapolated (Andrisano V. et al. (2001) J Chromatogr B Biomed Sci Appl, 753, 375-383). […]

[5] = antagomir treated SMMC-7721, 5-FU 75 mg/kg intraperitoneal, day 32
[6] = mock-transfected SMMC-7721, 5-FU 75 mg/kg intraperitoneal, day 32

With `Nc1ncn([C@H]2C[C@H](O)[C@@H](CO)O2)c(=O)n1` [5-Aza-2′-deoxycytidine] the “steady state level of miR-193a-3p” value (miR-193a-3p) was “raised the steady state level of miR-193a-3p”.
`O=c1[nH]cc(F)c(=O)[nH]1` [5-FU, 5-fluorouracil] was tested, and the “IC50 of HepG2 lower than SMMC-7721” value (HepG2 cells; HepG2 vs SMMC-7721) was 27.3 fold, the IC50 (HepG2 cells; Homo sapiens, HepG2, 72 h, MTT, read-out: IC50 to 5-FU) was 1.45 µg/mL (≈ 11.1 µM) and the “CASP2L RNA, fold of the untreated level” value [1] was 14.62 fold. For the same molecule, the “CASP2S RNA, fold of the untreated level” value [1] was 1.46 fold, the IC50 (QGY-7703 cells; QGY-7703, 72 h, MTT, read-out: IC50 to 5-FU) was 0.39 µg/mL (≈ 3 µM) and the IC50 (QGY-7703 cells; QGY-7703, SRSF2 siRNA-transfected QGY-7703, read-out: IC50 of 5-FU) was 2.22 µg/mL (≈ 17.1 µM). The IC50 (QGY-7703 cells; QGY-7703, miR-193a-3p mimic-transfected QGY-7703, read-out: 5-FU IC50) was 5.29 µg/mL (≈ 40.7 µM), the IC50 (QGY-7703 cells; QGY-7703, mock mimic-transfected QGY-7703, read-out: 5-FU IC50) was 0.72 µg/mL (≈ 5.54 µM) and the IC50 (QGY-7703 cells; QGY-7703, mock siRNA-transfected QGY-7703, read-out: IC50 of 5-FU) was 0.68 µg/mL (≈ 5.23 µM). The “IC50 of QGY-7703 lower than that of SMMC-7721” value (QGY-7703 cells; QGY-7703 vs SMMC-7721) was “approximately 105.2 fold”, the IC50 (SMMC-7721 cells; SMMC-7721, 72 h, MTT, read-out: IC50 to 5-FU) was 41 µg/mL (≈ 315 µM) and the IC50 (SMMC-7721 cells; SMMC-7721, miR-193a-3p antagomir-transfected SMMC-7721, read-out: 5-FU IC50) was 13.4 µg/mL (≈ 103 µM). It also gave an IC50 (SMMC-7721 cells; SMMC-7721, mock-transfected SMMC-7721, read-out: 5-FU IC50) of 46.7 µg/mL (≈ 359 µM), a tumor volume [2, 5] of 0.29 cm^3 and a tumor weight [2, 5] of 0.37 g. The tumor volume ([2]; mock-transfected SMMC-7721, 5-FU 75 mg/kg intraperitoneal, day 25) was 0.45 cm^3, the tumor volume [2, 6] was 0.89 cm^3 and the tumor weight [2, 6] was 0.82 g. The “CASP2L RNA, fold of the untreated level” value [3] was 7.38 fold, the “CASP2S RNA, fold of the untreated level” value [3] was 1.97 fold and the “Bcap-37 more resistant than ZR-75-30 (relative IC50)” value [4] was 69.0 fold.
